From patent US20160031855A1, “PROTEIN KINASE INHIBITORS” (ORION CORPORATION, priority 2013, published 2016)
Structures can show the parent of a compound that is named as a salt.

Molecular target: T1, FGFR1 kinase (Homo sapiens, UniProt P11362)
T1 construct: purchased Upstate, USA
Experiment: TR-FRET assay with FGFR1 kinase
Assay type: biochemical
Settings: 13 μM ATP; for IC50: dose response, read-out: IC50 of FGFR1 inhibition; for inhibition at 1 µM / Inhibition (%) of FGFR1 at 1000 nM: compound at 1000 nM
Description: 1. Inhibition of FGFR1 kinase
Compounds were screened in the TR-FRET assay with FGFR1 kinase. 5 ng of FGFR1 [Upstate, USA] kinase was used for assay. The compound was incubated with the kinase for 30 minutes at room temperature. After the incubation, substrate mix [40 nM Ultra light poly GT (Perkin Elmer, USA) and 13 μM ATP (Sigma)] was added. The above reaction was stopped by the addition of 40 mM EDTA after the 30 min kinase reaction. The Eu-labelled antiphospho-tyrosine antibody [Perkin Elmer, USA] was added at 0.5 nM and the fluorescence emission at 615 nm/665 nm [excitation at 340 nm] was measured. The compounds were initially screened at 100 nM and 1 μM concentrations. The compounds with >50% inhibition at 100 nM of FGFR1 were taken for the full dose response studies. The final DMSO concentration in the assay was 1%. For IC50 determination, ⅓^rd serial dilution was made from the 20 mM DMSO stock solution. 2 μl of these were transferred to the test wells containing […] of the reaction mixture [total reaction volume 20 μl]. The fluorescence was measured in Perkin Elmer Wallac 1420 Multilabel Counter Victor 3. The IC50 was determined by fitting the dose response data to sigmoidal curve fitting equation using GraphPad Prism software V5.

T1 sequence (P11362 22-822): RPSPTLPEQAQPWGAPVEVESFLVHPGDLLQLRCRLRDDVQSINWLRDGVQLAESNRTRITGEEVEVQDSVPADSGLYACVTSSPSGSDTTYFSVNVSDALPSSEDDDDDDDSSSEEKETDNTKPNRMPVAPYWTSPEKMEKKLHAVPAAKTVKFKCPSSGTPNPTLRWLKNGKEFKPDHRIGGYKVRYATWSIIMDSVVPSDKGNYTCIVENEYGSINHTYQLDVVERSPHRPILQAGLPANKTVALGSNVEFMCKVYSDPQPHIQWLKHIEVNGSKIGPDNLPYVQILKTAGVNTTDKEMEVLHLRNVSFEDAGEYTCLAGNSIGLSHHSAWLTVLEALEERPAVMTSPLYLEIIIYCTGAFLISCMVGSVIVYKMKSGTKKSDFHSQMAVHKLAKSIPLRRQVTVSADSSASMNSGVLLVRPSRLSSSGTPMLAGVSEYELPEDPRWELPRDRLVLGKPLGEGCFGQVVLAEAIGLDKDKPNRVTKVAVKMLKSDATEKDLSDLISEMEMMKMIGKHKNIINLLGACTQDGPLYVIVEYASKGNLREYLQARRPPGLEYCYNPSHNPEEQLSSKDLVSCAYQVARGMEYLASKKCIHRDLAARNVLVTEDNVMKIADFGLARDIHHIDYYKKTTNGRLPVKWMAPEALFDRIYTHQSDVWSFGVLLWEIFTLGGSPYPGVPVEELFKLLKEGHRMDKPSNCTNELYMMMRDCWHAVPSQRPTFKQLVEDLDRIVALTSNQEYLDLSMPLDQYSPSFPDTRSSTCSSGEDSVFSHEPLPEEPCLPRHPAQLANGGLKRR

SMILES | IC50 [nM] | inhibition at 1 µM [%] | Inhibition (%) of FGFR1 at 1000 nM [%]
Cn1cc(-c2ccc3c(c2)ncn3-c2cc(-c3ccc(F)cc3F)cc(Nc3ccn(C)n3)n2)cn1 [Example 1, 4-(2,4-Difluorophenyl)-N-(1-methyl-1H-pyrazol-3-yl)-6-(5-(1-methyl-1H-pyrazol-4-yl)-1H-benzo[d]imidazol-1-yl)pyridin-2-amine] | 16.5 | 97 | 
Cn1cc(-c2ccc3c(c2)ncn3-c2cc(-c3ccc(F)cc3F)cc(NS(=O)(=O)C3CC3)n2)cn1 [Example 2 (imido), Sodium salt of imido form of N-(4-(2,4-difluorophenyl)-6-(5-(1-methyl-1H-pyrazol-4-yl)-1H-benzo[d]imidazol-1-yl)pyridin-2-yl)cyclopropanesulfonamide] | 3.3 |  | 97
Cn1cc(-c2ccc3c(c2)ncn3-c2cc(-c3ccc(F)cc3F)cc(NS(=O)(=O)C3CC3)n2)cn1 [Example 2, N-(4-(2,4-difluorophenyl)-6-(5-(1-methyl-1H-pyrazol-4-yl)-1H-benzo[d]-imidazol-1-yl)pyridin-2-yl)cyclopropanesulfonamide] | 3.9 | 99 | 
Cn1cc(-c2ccc3c(c2)ncn3-c2cc(-c3ccc(F)cc3F)cc(NS(C)(=O)=O)n2)cn1 [Example 4, N-(4-(2,4-difluorophenyl)-6-(5-(1-methyl-1H-pyrazol-4-yl)-1H-benzo[d]-imidazol-1-yl)pyridin-2-yl)methanesulfonamide] | 4.3 | 98 | 
CCS(=O)(=O)Nc1cc(-c2ccc(F)cc2F)cc(-n2cnc3cc(-c4cnn(C)c4)ccc32)n1 [Example 5 (imido), Sodium salt of imido form of N-(4-(2,4-difluorophenyl)-6-(5-(1-methyl-1H-pyrazol-4yl)-1H-benzo[d]imidazol-1-yl)pyridin-2-yl)ethanesulfonamide] | 4.4 |  | 98
CCS(=O)(=O)Nc1cc(-c2ccc(F)cc2F)cc(-n2cnc3cc(-c4cnn(C)c4)ccc32)n1 [Example 5, N-(4-(2,4-difluorophenyl)-6-(5-(1-methyl-1H-pyrazol-4-yl)-1H-benzo[d]-imidazol-1-yl)pyridin-2-yl)ethanesulfonamide] | 1.1 | 99 | 
CC(C)S(=O)(=O)Nc1cc(-c2ccc(F)cc2F)cc(-n2cnc3cc(-c4cnn(C)c4)ccc32)n1 [Example 6 (imido), Imido form of N-(4-(2,4-difluorophenyl)-6-(5-(1-methyl-1H-pyrazol-4-yl)-1H-benzo[d]imidazol-1-yl)pyridin-2-yl)propane-2-sulfonamide] | 1.7 |  | 98
CC(C)S(=O)(=O)Nc1cc(-c2ccc(F)cc2F)cc(-n2cnc3cc(-c4cnn(C)c4)ccc32)n1 [Example 6, N-(4-(2,4-difluorophenyl)-6-(5-(1-methyl-1H-pyrazol-4-yl)-1H-benzo[d]-imidazol-1-yl)pyridin-2-yl)propane-2-sulfonamide] | 1.7 | 99 | 
Cn1cc(-c2ccc3c(c2)ncn3-c2cc(-c3ccccc3F)cc(NS(=O)(=O)C3CC3)n2)cn1 [Example 8 (imido), Sodium salt of imido form of N-(4-(2-fluorophenyl)-6-(5-(1-methyl-1H-pyrazol-4-yl)-1H-benzo[d]imidazol-1-yl)pyridin-2-yl)cyclopropanesulfonamide] | 3.3 |  | 97
Cn1cc(-c2ccc3c(c2)ncn3-c2cc(-c3ccccc3F)cc(NS(=O)(=O)C3CC3)n2)cn1 [Example 8, N-(4-(2-fluorophenyl)-6-(5-(1-methyl-1H-pyrazol-4-yl)-1H-benzo[d]imidazol-1-yl)pyridin-2-yl)cyclopropanesulfonamide] | 5.42 | 99 | 
Cn1cc(-c2ccc3c(c2)ncn3-c2cc(-c3ccccc3F)cc(NS(C)(=O)=O)n2)cn1 [Example 10, N-(4-(2-fluorophenyl)-6-(5-(1-methyl-1H-pyrazol-4-yl)-1H-benzo[d]imidazol-1-yl)pyridin-2-yl)methanesulfonamide] | 5.8 | 97 | 
CCS(=O)(=O)Nc1cc(-c2ccccc2F)cc(-n2cnc3cc(-c4cnn(C)c4)ccc32)n1 [Example 11 (imido), Sodium salt of imido form of N-(4-(2-fluorophenyl)-6-(5-(1-methyl-1H-pyrazol-4-yl)-1H-benzo[d]imidazol-1-yl)pyridin-2-yl)ethanesulfonamide] | 3.2 |  | 98
CCS(=O)(=O)Nc1cc(-c2ccccc2F)cc(-n2cnc3cc(-c4cnn(C)c4)ccc32)n1 [Example 11, N-(4-(2-fluorophenyl)-6-(5-(1-methyl-1H-pyrazol-4-yl)-1H-benzo[d]imidazol-1-yl)pyridin-2-yl)ethanesulfonamide] | 2.8 | 98 | 
CC(C)S(=O)(=O)Nc1cc(-c2ccccc2F)cc(-n2cnc3cc(-c4cnn(C)c4)ccc32)n1 [Example 12 (imido), Sodium salt of imido form of N-(4-(2-fluorophenyl)-6-(5-(1-methyl-1H-pyrazol-4-yl)-1H-benzo[d]imidazol-1-yl)pyridin-2-yl)propane-2-sulfonamide] | 5.2 |  | 99
CC(C)S(=O)(=O)Nc1cc(-c2ccccc2F)cc(-n2cnc3cc(-c4cnn(C)c4)ccc32)n1 [Example 12, N-(4-(2-fluorophenyl)-6-(5-(1-methyl-1H-pyrazol-4-yl)-1H-benzo[d]imidazol-1-yl)pyridin-2-yl)propane-2-sulfonamide] | 1.5 | 97 | 
Cn1cc(-c2ccc3c(c2)ncn3-c2cc(-c3ccc(F)cc3)cc(NS(=O)(=O)C3CC3)n2)cn1 [Example 14] | 14.4 | 98 | 

Now from value to compound:

IC50 [nM] | inhibition at 1 µM [%] | Inhibition (%) of FGFR1 at 1000 nM [%] | SMILES
3.4 | 97 |  | Cn1cc(-c2ccc3c(c2)ncn3-c2cc(-c3ccc(F)cc3)cc(NS(C)(=O)=O)n2)cn1 [Example 16, N-(4-(4-fluorophenyl)-6-(5-(1-methyl-1H-pyrazol-4-yl)-1H-benzo[d]imidazol-1-yl)pyridin-2-yl)methanesulfonamide]
5.2 |  | 97 | CC(C)S(=O)(=O)Nc1cc(-c2ccc(F)cc2)cc(-n2cnc3cc(-c4cnn(C)c4)ccc32)n1 [Example 17 (imido), Sodium salt of imido form: of N-(4-(4-fluorophenyl)-6-(5-(1-methyl-1H-pyrazol-4-yl)-1H-benzo[d]imidazol-1-yl)pyridin-2-yl)propane-2-sulfonamide]
4.6 | 96 |  | CC(C)S(=O)(=O)Nc1cc(-c2ccc(F)cc2)cc(-n2cnc3cc(-c4cnn(C)c4)ccc32)n1 [Example 17, N-(4-(4-fluorophenyl)-6-(5-(1-methyl-1H-pyrazol-4-yl)-1H-benzo[d]imidazol-1-yl)pyridin-2-yl)propane-2-sulfonamide]
5 |  | 97 | Cn1cc(-c2ccc3c(c2)ncn3-c2cc(-c3ncccc3F)cc(NS(=O)(=O)C3CC3)n2)cn1 [Example 18, N-(3-fluoro-6′-(5-(1-methyl-1H-pyrazol-4-yl)-1H-benzo[d]imidazol-1-yl)-[2,4′-bipyridin]-2-yl)cyclopropanesulfonamide]
28.5 | 96 |  | CC(=O)Nc1cc(-c2ncccc2F)cc(-n2cnc3cc(-c4cnn(C)c4)ccc32)n1 [Example 19, N-(3-fluoro-6′-(5-(1-methyl-1H-pyrazol-4-yl)-1H-benzo[d]imidazol-1-yl)-[2,4′-bipyridin]-2′-yl)acetamide]
3.7 | 99 |  | CN(C)CCn1cc(-c2ccc3c(c2)ncn3-c2cc(-c3ccc(F)cc3F)cc(NS(=O)(=O)C3CC3)n2)cn1 [Example 21, N-(4-(2,4-difluorophenyl)-6-(5-(1-(2-(dimethylamino)ethyl)-1H-pyrazol-4-yl)-1H-benzo[d]imidazol-1-yl)pyridin-2-yl)cyclopropanesulfonamide]
9.2 | 97 |  | Cn1cc(-c2ccc3c(c2)ncn3-c2cc(-c3ccccc3F)nc(NS(=O)(=O)C3CC3)n2)cn1 [Example 22, N-(4-(2-fluorophenyl)-6-(5-(1-methyl-1H-pyrazol-4-yl)-1H-benzo[d]imidazol-1-yl)pyrimidin-2-yl)cyclopropanesulfonamide]
10 | 97 |  | O=S(=O)(Nc1cc(-c2ccc(F)cc2F)cc(-n2cnc3cc(-n4cccn4)ccc32)n1)C1CC1 [Example 23, N-(6-(5-(1H-pyrazol-1-yl)-1H-benzo[d]imidazol-1-yl)-4-(2,4-difluorophenyl)-pyridin-2-yl)cyclopropanesulfonamide]
3.1 | 97 |  | Cn1cc(-c2ccc3c(c2)ncn3-c2cc(-c3ncc(F)cc3F)cc(NS(=O)(=O)C3CC3)n2)cn1 [Example 25, N-(3,5-difluoro-6′-(5-(1-methyl-1H-pyrazol-4-yl)-1H-benzo[d]imidazol-1-yl)-[2,4′-bipyridin]-2′-yl)cyclopropanesulfonamide]
21.9 | 94 |  | CC(=O)Nc1cc(-c2ncc(F)cc2F)cc(-n2cnc3cc(-c4cnn(C)c4)ccc32)n1 [Example 26, N-(3,5-difluoro-6′-(5-(1-methyl-1H-pyrazol-4-yl)-1H-benzo[d]imidazol-1-yl)-[2,4′-bipyridin]-2′-yl)acetamide]
